Non-standard residues stand in square brackets, D forms with d. Hyp = O=C(O)[C@@H]1C[C@@H](O)CN1
Tests used:
[1] = tested on: tobacco suspension cell cultures; experiment: Alkalinization assay (tobacco cell suspension cultures); type: cell-based, N. tabacum; conditions: for Alkalinization of tobacco suspension cell cultures (in words): tobacco suspension cells; for EC50: 2 ml tobacco suspension cells, read-out: Concentrations for 1/2 maximal activity in Alkalinization Assays (Tobacco Cell Suspension Cultures)
Description: Column fractions were assayed using suspension-cultured tobacco cells as follows. An aliquot of cells (usually 1 to 2 ml) were placed in the wells of culture plates, then aliquots from each column fraction (1 to 10 μL) were placed in each well of the culture plates. The cells in the plates were agitated by a circular motion of the rotary shaker on which they sat. The pH was then monitored over time and the change in pH at various times was plotted versus fraction number.
The two active peaks were solubilized in 1 ml 0.1% TFA each and injected into a narrow bore reversed-phase C18 column (Vydac, Column 218TP52, 2.1 by 250 mm, 5 μm beads, 300 angstrom pores). Solvent A consisted of 0.1% TFA in water, and solvent B was 0.05% TFA in methanol. Samples were injected in solvent A, and after 2 minutes, a 90 minute gradient from 0% solvent B to 30% solvent B was applied. The flow rate was 0.25 ml/min and the fractions (0.25 ml) were monitored at 214 nm and 2 μl were assayed for their alkalinization activity in tobacco cell cultures. The elution and alkalinization profiles for peak I activity are shown in FIG. 3A and FIG. 3B, respectively. The elution and alkalinization profile for peak II activity are shown in FIG. 4A and FIG. 4B, respectively.
The cells can be maintained in 125 mL Ehrlenmeyer flasks on an orbital shaker (160 rpm) under constant light. Three milliliters of cells are subcultured every seven days into 45 mL of sterile media (unbuffered, pH 5.5 adjusted with 0.1 M KOH) containing 3% sucrose, 4.3 g/L Murashige and Skoog salt mixture, 5 mg/L 1-napthylacetic acid, 2 mg/L 6-benzylaminopurine, 110 mg/L Nitsch and Nitsch vitamin powder, 1 mg/L thiamine, 100 mg/L myo-inositol and 1 mM EDTA. Cells can be used for alkalinization assays from 4 to 8 days after subculturing.

[2] = tested on: tobacco proteinase inhibitor protein; experiment: Proteinase inhibitor inducing assay (tobacco leaves; supplied to young tobacco plants through cut stems); type: in vivo; conditions: for Induction of tobacco proteinase inhibitor protein (in words): tobacco plants; for Concentrations for 1/2 maximal activity in Proteinase Inhibitor Inducing Assays (Tobacco Leaves): young tobacco plants, supplied through cut stems
Description: The purified polypeptides were sequenced and named tobacco systemin I (peak I activity) (SEQ ID NO: 1) and tobacco systemin II (peak II activity) (SEQ ID NO: 2). Both are polypeptides of 18 amino acids and both are glycosylated. Using mild acid hydrolysis, the carbohydrates were removed, and the masses of both tobacco systemin I (SEQ ID NO: 1) and tobacco systemin II (SEQ ID NO: 2) were analyzed before and after acid hydrolysis using a MALDI-MS. The amino acid sequence of tobacco systemin I is NH2-RGANLPXXSXASSXXSKE-COO. (SEQ ID NO:1). The amino acid sequence of tobacco systemin II is NH2-NRKPLSXXSXKPADGQRP-COO (SEQ ID NO:2). The one letter abbreviation “X” represents hydroxyproline. The masses after acid hydrolysis exactly matched the masses obtained by sequence analysis. […] The potency of the tobacco systemins was similar to that found for tomato systemin (disclosed in U.S. Pat. No. 5,378,819) in its alkalinization response in tomato cell suspension cultures and in inducing proteinase inhibitors in leaves of excised tomato plants (Table 1).

MAP kinase protein = experiment: MAP kinase assay in tobacco leaf extracts; type: biochemical
Description: The ability of tobacco systemin I (SEQ ID NO: 1), tobacco systemin II (SEQ ID NO: 2) and the 5 kDa polypeptide, described in Example 2 herein, to stimulate the phosphorylation of a MAP kinase protein in tobacco leaf extracts was investigated. The MAP kinase assay utilized was essentially as described in Stratmann, J. W. and Ryan, C. A., Proc. Nat'l. Acad. Sci. U.S.A. 94:11085-11089 (1997), which publication is incorporated herein by reference.

Induction of tobacco proteinase inhibitor protein (in words) [2] | Concentrations for 1/2 maximal activity in Proteinase Inhibitor Inducing Assays (Tobacco Leaves) [2] | EC50 [1] [pM] | MAP kinase stimulating activity (in words) (MAP kinase protein) | Substance | Alkalinization of tobacco suspension cell cultures (in words) [1]
 |  |  |  | tomato systemin (AVQSKPPSKRDPPKMQTD; Systemin; UniProt P27058 179-196, looked up) [tomato systemin disclosed in U.S. Pat. No. 5,378,819, reference compound] | does not cause alkalinization
active at low picomole levels | ˜200 fmol/plant | ~250 |  | 18 amino acid glycosylated polypeptide from tobacco, NH2-RGANLPXXSXASSXXSKE-COO (X = hydroxyproline), 9 pentose units (H-RGANLP[Hyp][Hyp]S[Hyp]ASS[Hyp][Hyp]SKE-OH; also: 9 pentose units glycosylation, places not given here) [Tob Sys I, tobacco systemin I] | active at low picomole levels
active at low picomole levels | ˜200 fmol/plant | ~250 | possess MAP kinase stimulating activity | 18 amino acid glycosylated polypeptide from tobacco, NH2-NRKPLSXXSXKPADGQRP-COO (X = hydroxyproline), 6 pentose units (H-NRKPLS[Hyp][Hyp]S[Hyp]KPADGQRP-OH; also: 6 pentose units glycosylation, places not given here) [Tob Sys II, tobacco systemin II] | active at low picomole levels

Reference: US20030211941A1, “Methods for identifying signalling molecules” (priority 2002, published 2003)
